Assay results reported in patent publication US7323569B2, “7-phenylpyrazolopyridine compounds” (Eisai R&D Management Co., Ltd., priority 2002, dated 2008).
Like-named read-outs stand apart in the source and are kept apart here.

Test system: CYP3A4
Details: human, hepatocytes, 48 h
Description: Evaluation of Drug Metabolizing Enzyme (CYP3A4) Inducibility Using Cryopreserved Human Hepatocyte
Cryopreserved hepatocytes (In Vitro Technology) were rapidly thawed while stirring at 37° C., and then ice-cooled William's Medium E (10% FBS, +PSG) was slowly added to the cells prior to centrifugation at 500 rpm for 5 minutes. After removing the supernatant, the obtained hepatocytes were diluted with ice-cooled William's Medium E to a concentration of 5×10^5 cells/mL, seeded on a 48-well collagen coated plate (BD Biosciences) at 1×10^5 cells/cm^2 and incubated for about 24 hours at 37° C., 5% CO2, after which the medium was changed with Hepato-STIM™ (BD Biosciences) (+EGF, PSG, −FBS) and culture was maintained for another 24 hours under conditions of 37° C., 5% CO2. At approximately 48 hours after the cell seeding, the test compound or rifampicin (SIGMA, positive control) in the form of a diluted solution (using Hepato-STIM™ (+EGF, PSG, −FBS)) was added, hepatocyte were incubated for about 24 hours under conditions of 37° C., 5% CO2, and the culture medium was changed with medium containing a freshly prepared dilution of the test compound or rifampicin prior to further incubation for 24 hours under the same conditions. After incubation, the cells were washed once with PBS, and the total RNA was extracted using a Qiagen RNeasy Mini kit (Qiagen). The cDNA was synthesized by reverse-transcription of extracted using TaqMan Reverse Transcription Reagents (Applied Biosystems). The reverse transcription reaction was carried out using oligo dT as primer, with treatment at 25° C. for 10 minutes followed by treatment at 48° C. for 60 minutes, after which the reverse transcriptase was inactivated by treatment at 95° C. for 10 minutes. The obtained cDNA was supplied to a PCR using a Gene Amp PCR system 9700. The obtained cDNA was quantitated using an SYBR Green PCR Core Reagents kit (Applied Biosystems), and the human CYP3A4 and GAPDH mRNA was quantitated using an ABI7700 (Applied Biosystems). The abbreviations used in the test example are explained below. • FBS: Fetal Bovine Serum • PSG: Penicillin (100 U/ml), Streptomycin (100 μg/ml), Glutamine (2 mM) • EGF: Epidermal Growth Factor • GAPDH: Glyceraldehyde-3-Phosphate Dehydrogenase
(2) Calculation of CYP3A4 Inducibility
Next, for comparison of each test run, the differences between the value of the CYP3A4 mRNA amount divided by the GAPDH mRNA amount with addition of the test compound at various concentrations and with addition of the negative control were calculated as percentages, with 100% being defined as the difference between the values of the CYP3A4 mRNA amount divided by the GAPDH mRNA amount for the positive control and negative control, to determine the inducibility of each test compound.

| CYP3A4 inducibility, % of Positive Control (0.03 μM) [%] | CYP3A4 inducibility, % of Positive Control (0.1 μM) [%] | CYP3A4 inducibility, % of Positive Control (0.3 μM) [%] | CYP3A4 inducibility (1 μM) [%] | CYP3A4 inducibility, % of Positive Control (1 μM) [%] | CYP3A4 inducibility, % of Positive Control (3 μM) [%] | CYP3A4 inducibility, % of Positive Control (10 μM) [%] | Compound |
| --- | --- | --- | --- | --- | --- | --- | --- |
| 2 | 3 | 11 | ≤ 40 | 25 | 49 | 59 | COCc1cc(OC)c(-c2cccc3c(N(CC4CCOCC4)CC4CC4)c(SC)nn23)c(OC)c1 [Example 59, N-Cyclopropylmethyl-N-[7-[2,6-dimethoxy-4-(methoxymethyl)phenyl]-2-(methylsulfanyl)pyrazolo[1,5-a]pyridin-3-yl]-N-tetrahydro-2H-4-pyranylmethylamine] |
| 3 | 3 | 7 | ≤ 40 | 25 | 23 | 34 | CCOCc1cc(OC)c(-c2cccc3c(N(CC4CCOCC4)CC4CC4)c(CC)nn23)c(OC)c1 [Example 3, N-Cyclopropylmethyl-N-7-[4-(ethoxymethyl)-2,6-dimethoxyphenyl]-2-ethylpyrazolo[1,5-a]pyridin-3-yl-N-tetrahydro-2H-4-pyranylmethylamine] |
| 6 | 7 | 12 | ≤ 40 | 20 | 36 | 65 | CCc1nn2c(-c3c(OC)cc(COC)cc3OC)cccc2c1N(CC1CCOCC1)CC1CC1 [Example 1, N-Cyclopropylmethyl-N-7-[2,6-dimethoxy-4-(methoxymethyl)phenyl]-2-ethylpyrazolo[1,5-a]pyridin-3-yl-N-tetrahydro-2H-4-pyranylmethylamine] |
